Tests used:
Test in all cases: biochemical
Assay type in all cases: biochemical
382 unique human kinases [1] = biological target: T1, 382 unique human kinases (Homo sapiens, UniProt P49840); details: GSK3a, [ATP] 30 µM, compound 10 uM; for remaining activity at 10 µM: read-out: % Enzyme Activity (relative to DMSO controls)
T1 construct: purchased Reaction Biology (HotSpot contract assay)

382 unique human kinases [2] = biological target: T2, 382 unique human kinases (Homo sapiens, UniProt Q9HCP0); details: CK1g1, 10 uM; for remaining activity at 10 µM: read-out: % Enzyme Activity (relative to DMSO controls)
T2 construct: purchased Reaction Biology (HotSpot contract assay)

382 unique human kinases [3] = biological target: T3, 382 unique human kinases (Homo sapiens, UniProt P16234, V561D); details: PDGFRa (V561D), 10 uM; for remaining activity at 10 µM: read-out: % Enzyme Activity (relative to DMSO controls)
T3 construct: purchased Reaction Biology (HotSpot contract assay)

382 unique human kinases [4] = biological target: T4, 382 unique human kinases (Homo sapiens, UniProt P11362); details: FGFR1, [ATP] 5 µM, compound 10 uM; for remaining activity at 10 µM: read-out: % Enzyme Activity (relative to DMSO controls)
T4 construct: purchased Reaction Biology (HotSpot contract assay)
T4 sequence (P11362 22-822): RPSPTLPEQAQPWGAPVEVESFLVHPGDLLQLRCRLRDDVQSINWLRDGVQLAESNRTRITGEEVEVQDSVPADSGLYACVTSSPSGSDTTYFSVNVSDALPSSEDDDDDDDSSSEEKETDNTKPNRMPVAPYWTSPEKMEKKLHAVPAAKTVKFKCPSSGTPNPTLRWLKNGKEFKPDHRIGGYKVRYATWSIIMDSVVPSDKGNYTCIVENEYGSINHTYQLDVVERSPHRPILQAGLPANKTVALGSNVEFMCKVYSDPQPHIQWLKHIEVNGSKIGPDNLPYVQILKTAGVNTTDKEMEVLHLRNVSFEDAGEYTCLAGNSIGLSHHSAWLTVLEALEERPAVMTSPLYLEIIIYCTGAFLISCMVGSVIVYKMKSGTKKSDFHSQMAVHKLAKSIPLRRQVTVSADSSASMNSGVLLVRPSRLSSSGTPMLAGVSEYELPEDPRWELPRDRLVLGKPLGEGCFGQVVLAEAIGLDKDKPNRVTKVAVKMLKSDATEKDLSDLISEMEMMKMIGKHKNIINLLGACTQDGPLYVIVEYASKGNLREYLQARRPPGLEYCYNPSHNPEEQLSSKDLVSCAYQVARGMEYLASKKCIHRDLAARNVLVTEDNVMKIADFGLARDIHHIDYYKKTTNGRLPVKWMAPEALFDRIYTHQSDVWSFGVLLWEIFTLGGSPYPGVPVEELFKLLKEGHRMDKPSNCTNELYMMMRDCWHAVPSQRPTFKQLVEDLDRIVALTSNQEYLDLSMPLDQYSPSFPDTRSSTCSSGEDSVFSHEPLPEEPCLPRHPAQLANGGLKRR

382 unique human kinases [5] = biological target: T5, 382 unique human kinases (Homo sapiens, UniProt Q86V86); details: PIM3, [ATP] 20 µM
T5 construct: purchased Reaction Biology (HotSpot contract assay)

382 unique human kinases [6] = biological target: T6, 382 unique human kinases (Homo sapiens, UniProt P22455, N535K); details: FGFR4 (N535K), 10 uM; for remaining activity at 10 µM: read-out: % Enzyme Activity (relative to DMSO controls)
T6 construct: purchased Reaction Biology (HotSpot contract assay)

382 unique human kinases [7] = biological target: T7, 382 unique human kinases (Homo sapiens, UniProt P11309); details: PIM1, [ATP] 100 µM, compound 10 uM; for remaining activity at 10 µM: read-out: % Enzyme Activity (relative to DMSO controls)
T7 construct: purchased Reaction Biology (HotSpot contract assay)
T7 sequence (P11309 whole entry): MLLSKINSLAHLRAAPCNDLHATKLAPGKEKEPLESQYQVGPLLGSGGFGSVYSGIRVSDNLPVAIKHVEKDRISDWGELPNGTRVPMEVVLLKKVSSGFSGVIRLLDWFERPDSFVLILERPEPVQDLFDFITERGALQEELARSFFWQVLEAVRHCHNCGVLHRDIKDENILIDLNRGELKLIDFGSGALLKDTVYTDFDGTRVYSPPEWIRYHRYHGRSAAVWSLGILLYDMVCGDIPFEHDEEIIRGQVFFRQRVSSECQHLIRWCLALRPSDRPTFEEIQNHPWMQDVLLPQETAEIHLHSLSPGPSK

382 unique human kinases [8] = biological target: T8, 382 unique human kinases (Homo sapiens, UniProt P09619); details: kinase PDGFRb, compound 10 uM; for remaining activity at 10 µM: read-out: % Enzyme Activity (relative to DMSO controls)
T8 construct: purchased Reaction Biology (HotSpot contract assay)

382 unique human kinases [9] = biological target: T9, 382 unique human kinases (Homo sapiens, UniProt Q6DT37); details: DMPK2, 10 uM; for remaining activity at 10 µM: read-out: % Enzyme Activity (relative to DMSO controls)
T9 construct: purchased Reaction Biology (HotSpot contract assay)
T9 sequence (Q6DT37 whole entry): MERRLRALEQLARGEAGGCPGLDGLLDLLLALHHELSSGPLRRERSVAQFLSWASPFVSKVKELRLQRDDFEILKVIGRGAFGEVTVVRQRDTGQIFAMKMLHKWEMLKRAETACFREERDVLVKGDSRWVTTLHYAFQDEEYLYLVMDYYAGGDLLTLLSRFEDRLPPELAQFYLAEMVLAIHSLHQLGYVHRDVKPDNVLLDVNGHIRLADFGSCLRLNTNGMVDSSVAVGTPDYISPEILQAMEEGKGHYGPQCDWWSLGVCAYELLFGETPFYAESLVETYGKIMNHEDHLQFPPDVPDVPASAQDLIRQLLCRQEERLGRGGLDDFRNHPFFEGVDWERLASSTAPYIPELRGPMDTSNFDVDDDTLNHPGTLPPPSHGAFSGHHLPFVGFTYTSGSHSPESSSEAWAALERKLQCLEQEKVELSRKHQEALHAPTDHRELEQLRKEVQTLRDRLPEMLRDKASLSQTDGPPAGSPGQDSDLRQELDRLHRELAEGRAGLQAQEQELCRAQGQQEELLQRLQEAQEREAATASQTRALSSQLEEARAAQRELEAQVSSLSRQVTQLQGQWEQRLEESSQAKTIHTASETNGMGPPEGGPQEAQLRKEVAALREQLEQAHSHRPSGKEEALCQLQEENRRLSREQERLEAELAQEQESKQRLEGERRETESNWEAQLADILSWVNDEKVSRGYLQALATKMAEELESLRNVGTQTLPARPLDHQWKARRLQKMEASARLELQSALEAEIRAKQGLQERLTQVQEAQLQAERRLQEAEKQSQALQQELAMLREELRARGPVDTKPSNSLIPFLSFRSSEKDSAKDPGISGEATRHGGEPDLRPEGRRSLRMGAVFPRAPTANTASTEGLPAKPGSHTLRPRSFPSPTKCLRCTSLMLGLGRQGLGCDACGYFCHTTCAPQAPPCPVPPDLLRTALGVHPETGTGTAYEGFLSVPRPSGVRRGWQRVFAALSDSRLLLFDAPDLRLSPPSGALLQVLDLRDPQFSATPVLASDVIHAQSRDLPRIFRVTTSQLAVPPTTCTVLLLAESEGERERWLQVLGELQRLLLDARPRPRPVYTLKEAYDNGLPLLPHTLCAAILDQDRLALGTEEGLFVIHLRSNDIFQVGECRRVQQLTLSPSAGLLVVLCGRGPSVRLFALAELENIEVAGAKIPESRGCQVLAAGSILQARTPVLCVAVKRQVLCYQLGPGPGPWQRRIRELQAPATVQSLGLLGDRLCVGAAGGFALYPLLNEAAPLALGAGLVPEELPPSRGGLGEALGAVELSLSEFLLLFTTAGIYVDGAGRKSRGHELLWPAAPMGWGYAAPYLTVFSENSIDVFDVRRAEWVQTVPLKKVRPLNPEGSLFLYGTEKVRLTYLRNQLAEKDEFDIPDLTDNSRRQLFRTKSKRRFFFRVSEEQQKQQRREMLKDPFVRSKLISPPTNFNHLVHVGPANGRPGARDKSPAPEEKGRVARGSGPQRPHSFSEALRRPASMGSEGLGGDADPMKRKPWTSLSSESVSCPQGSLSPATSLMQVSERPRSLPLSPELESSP

382 unique human kinases [10] = biological target: T10, 382 unique human kinases (Homo sapiens, UniProt Q9BUB5); details: kinase MNK1, compound 10 uM; for remaining activity at 10 µM: read-out: % Enzyme Activity (relative to DMSO controls)
T10 construct: purchased Reaction Biology (HotSpot contract assay)

382 unique human kinases [11] = biological target: T11, 382 unique human kinases (Homo sapiens, UniProt Q6P5Z2); details: kinase PKN3/PRK3, compound 10 uM; for remaining activity at 10 µM: read-out: % Enzyme Activity (relative to DMSO controls)
T11 construct: purchased Reaction Biology (HotSpot contract assay)
T11 sequence (Q6P5Z2 whole entry): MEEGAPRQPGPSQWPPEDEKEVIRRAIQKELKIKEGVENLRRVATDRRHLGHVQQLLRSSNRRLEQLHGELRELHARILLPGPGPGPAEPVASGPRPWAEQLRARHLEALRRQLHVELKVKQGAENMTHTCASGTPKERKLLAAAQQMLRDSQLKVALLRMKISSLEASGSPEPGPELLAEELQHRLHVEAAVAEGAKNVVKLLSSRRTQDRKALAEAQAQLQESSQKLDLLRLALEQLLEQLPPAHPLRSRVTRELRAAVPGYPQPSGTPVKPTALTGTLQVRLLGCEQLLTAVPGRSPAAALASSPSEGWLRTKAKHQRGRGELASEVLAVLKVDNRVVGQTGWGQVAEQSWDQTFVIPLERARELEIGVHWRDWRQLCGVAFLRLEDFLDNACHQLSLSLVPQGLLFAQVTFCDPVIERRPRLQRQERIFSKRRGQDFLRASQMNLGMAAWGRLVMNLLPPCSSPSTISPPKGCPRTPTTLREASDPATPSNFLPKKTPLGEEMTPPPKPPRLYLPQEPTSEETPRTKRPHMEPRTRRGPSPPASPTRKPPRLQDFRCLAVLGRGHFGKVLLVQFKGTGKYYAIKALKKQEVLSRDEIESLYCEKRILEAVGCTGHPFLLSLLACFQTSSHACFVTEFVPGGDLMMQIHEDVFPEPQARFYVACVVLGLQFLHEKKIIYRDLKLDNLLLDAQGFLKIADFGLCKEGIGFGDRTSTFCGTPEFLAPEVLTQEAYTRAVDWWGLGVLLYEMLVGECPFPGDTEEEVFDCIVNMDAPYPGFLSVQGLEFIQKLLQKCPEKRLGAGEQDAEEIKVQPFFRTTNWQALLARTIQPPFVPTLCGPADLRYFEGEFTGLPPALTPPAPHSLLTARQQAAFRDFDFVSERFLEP

382 unique human kinases [12] = biological target: T12, 382 unique human kinases (Homo sapiens, UniProt P52333); details: JAK3, 10 uM; for remaining activity at 10 µM: read-out: % Enzyme Activity (relative to DMSO controls)
T12 construct: purchased Reaction Biology (HotSpot contract assay)
T12 sequence (P52333 1-1124): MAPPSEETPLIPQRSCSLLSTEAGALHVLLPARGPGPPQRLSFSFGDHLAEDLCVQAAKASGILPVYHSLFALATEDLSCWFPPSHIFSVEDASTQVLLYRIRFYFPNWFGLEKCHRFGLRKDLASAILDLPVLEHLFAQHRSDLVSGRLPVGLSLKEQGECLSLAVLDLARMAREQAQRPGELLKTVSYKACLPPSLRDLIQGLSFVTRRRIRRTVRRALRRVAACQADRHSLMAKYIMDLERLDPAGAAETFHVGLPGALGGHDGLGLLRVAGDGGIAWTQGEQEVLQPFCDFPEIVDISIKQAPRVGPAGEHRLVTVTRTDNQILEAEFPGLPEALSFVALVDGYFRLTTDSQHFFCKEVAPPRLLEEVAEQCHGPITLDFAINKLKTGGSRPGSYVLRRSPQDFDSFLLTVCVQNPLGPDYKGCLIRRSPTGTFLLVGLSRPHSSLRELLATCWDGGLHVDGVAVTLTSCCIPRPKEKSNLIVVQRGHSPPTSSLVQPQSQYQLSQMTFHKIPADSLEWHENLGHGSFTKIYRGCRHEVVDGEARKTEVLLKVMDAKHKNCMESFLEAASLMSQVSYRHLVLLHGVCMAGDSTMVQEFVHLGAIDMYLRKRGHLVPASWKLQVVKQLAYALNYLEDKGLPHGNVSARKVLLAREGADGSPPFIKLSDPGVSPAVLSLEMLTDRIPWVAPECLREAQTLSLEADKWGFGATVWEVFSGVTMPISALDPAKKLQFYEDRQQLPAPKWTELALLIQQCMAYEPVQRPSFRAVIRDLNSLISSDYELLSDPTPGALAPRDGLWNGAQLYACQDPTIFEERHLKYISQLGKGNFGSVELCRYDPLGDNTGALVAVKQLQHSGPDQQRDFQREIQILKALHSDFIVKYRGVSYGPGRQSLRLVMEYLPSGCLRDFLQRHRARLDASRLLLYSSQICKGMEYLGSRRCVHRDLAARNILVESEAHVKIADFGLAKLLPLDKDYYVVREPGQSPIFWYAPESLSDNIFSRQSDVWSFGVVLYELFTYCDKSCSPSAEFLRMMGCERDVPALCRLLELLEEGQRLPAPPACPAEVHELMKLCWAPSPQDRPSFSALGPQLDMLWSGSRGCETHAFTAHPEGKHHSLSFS

382 unique human kinases [13] = biological target: T13, 382 unique human kinases (Homo sapiens, UniProt P49760); details: CLK2, 10 uM; for remaining activity at 10 µM: read-out: % Enzyme Activity (relative to DMSO controls)
T13 construct: purchased Reaction Biology (HotSpot contract assay)
T13 sequence (P49760 whole entry): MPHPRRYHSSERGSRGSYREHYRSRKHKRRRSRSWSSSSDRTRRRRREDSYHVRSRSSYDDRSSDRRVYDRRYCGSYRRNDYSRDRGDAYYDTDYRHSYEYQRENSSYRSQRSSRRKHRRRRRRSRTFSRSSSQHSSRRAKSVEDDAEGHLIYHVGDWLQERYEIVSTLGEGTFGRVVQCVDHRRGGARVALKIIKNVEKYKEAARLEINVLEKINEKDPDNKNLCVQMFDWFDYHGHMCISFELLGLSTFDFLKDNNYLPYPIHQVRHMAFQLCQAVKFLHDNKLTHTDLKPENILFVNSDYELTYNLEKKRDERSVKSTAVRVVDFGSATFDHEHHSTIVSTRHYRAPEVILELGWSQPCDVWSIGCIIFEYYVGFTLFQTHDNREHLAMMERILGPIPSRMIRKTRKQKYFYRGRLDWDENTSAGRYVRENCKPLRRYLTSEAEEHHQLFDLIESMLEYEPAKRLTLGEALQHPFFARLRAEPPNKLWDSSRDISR

[14] = compound 10 uM, read-out: % Enzyme Activity (relative to DMSO controls)

T1 sequence (P49840 whole entry): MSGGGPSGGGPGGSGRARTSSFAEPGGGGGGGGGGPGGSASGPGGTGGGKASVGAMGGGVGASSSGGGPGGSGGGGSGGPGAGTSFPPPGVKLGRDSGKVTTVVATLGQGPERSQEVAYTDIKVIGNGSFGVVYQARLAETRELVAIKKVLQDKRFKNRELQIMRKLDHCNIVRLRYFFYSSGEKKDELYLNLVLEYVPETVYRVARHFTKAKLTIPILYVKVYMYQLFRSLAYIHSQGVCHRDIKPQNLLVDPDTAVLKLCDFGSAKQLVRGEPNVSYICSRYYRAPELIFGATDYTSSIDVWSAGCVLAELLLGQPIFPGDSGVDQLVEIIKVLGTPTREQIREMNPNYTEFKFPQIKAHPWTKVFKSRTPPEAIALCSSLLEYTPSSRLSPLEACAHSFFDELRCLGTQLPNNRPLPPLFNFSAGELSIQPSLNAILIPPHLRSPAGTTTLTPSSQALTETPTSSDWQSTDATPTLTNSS

Compound	remaining activity at 10 µM (382 unique human kinases [1]) [%]	remaining activity at 10 µM (382 unique human kinases [2]) [%]	remaining activity at 10 µM (382 unique human kinases [3]) [%]	remaining activity at 10 µM (382 unique human kinases [4]) [%]	remaining activity at 10 µM (382 unique human kinases [5]; [14]) [%]	remaining activity at 10 µM (382 unique human kinases [6]) [%]	remaining activity at 10 µM (382 unique human kinases [7]) [%]	remaining activity at 10 µM (382 unique human kinases [8]) [%]	remaining activity at 10 µM (382 unique human kinases [9]) [%]	remaining activity at 10 µM (382 unique human kinases [10]) [%]	remaining activity at 10 µM (382 unique human kinases [11]) [%]	remaining activity at 10 µM (382 unique human kinases [12]) [%]	remaining activity at 10 µM (382 unique human kinases [13]) [%]	other results
CCNC(=O)c1noc(-c2cc(C(C)C)c(O)cc2O)c1-c1ccc(CN2CCOCC2)cc1 [Luminespib]	96.4	97.5	104	102	97.5	101	97.2	–	–	–	–	–	–	% Enzyme Activity (relative to DMSO controls) (382 unique human kinases [1]): 93.84%; % Enzyme Activity (relative to DMSO controls) (382 unique human kinases [2]): 93.44%; % Enzyme Activity (relative to DMSO controls) (382 unique human kinases [3]): 103.61%; % Enzyme Activity (relative to DMSO controls) (382 unique human kinases [4]): 97.95%; % Enzyme Activity (relative to DMSO controls) (382 unique human kinases [5]; compound 10 uM): 94.11%; % Enzyme Activity (relative to DMSO controls) (382 unique human kinases [6]): 97.33%; % Enzyme Activity (relative to DMSO controls) (382 unique human kinases [7]): 94.76%
CC(C)c1cc(-c2n[nH]c(=O)n2-c2ccc3c(ccn3C)c2)c(O)cc1O [Ganetespib (STA9090)]	–	–	–	–	–	–	–	92.1	75.6	79.3	83.9	60.1	67.1	–
CCNC(=O)c1noc(-c2cc(C(C)C)c(O)cc2O)c1-c1ccc(CN2CCOCC2)cc1 [Luminespib (AUY-922)]	–	–	–	–	–	–	–	83.2	114	106	104	103	80.2	% Enzyme Activity (relative to DMSO controls) (382 unique human kinases [8]): 81.53%; % Enzyme Activity (relative to DMSO controls) (382 unique human kinases [9]): 113.14%; % Enzyme Activity (relative to DMSO controls) (382 unique human kinases [10]): 105.09%; % Enzyme Activity (relative to DMSO controls) (382 unique human kinases [11]): 102.60%; % Enzyme Activity (relative to DMSO controls) (382 unique human kinases [12]): 102.74%; % Enzyme Activity (relative to DMSO controls) (382 unique human kinases [13]): 80.06%
CC(C)c1cc(-c2n[nH]c(=O)n2-c2ccc3c(ccn3C)c2)c(O)cc1O [Ganetespib]	21.9	95.4	99.7	58.5	14.3	101	15.9	–	–	–	–	–	–	remaining activity at 1 µM (382 unique human kinases [5]; compound 1 uM, read-out: % Enzyme Activity (relative to DMSO controls)): 61.1%

From PMC8550792, “Evolution of kinase polypharmacology across HSP90 drug discovery” (Cell Chemical Biology, 2021)
